Active and inactive are the calls of the source.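 How the source made its calls: active means mean EC50 of 20 µM or lower; inactive means the rest.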
Target: Neurotensin receptor type 2 (Homo sapiens) (UniProt O95665)
Assay: beta-arrestin recruitment via NTR2 activation – imaging, NTR2-U2OS cells, beta-arrestin GFP imaging, selectivity assay for NTR1 agonist project, SAR follow-up (AID 588495)
Settings: image-based GFP translocation

Neurotensin receptor type 2 (Homo sapiens), sequence (O95665 whole entry, looked up): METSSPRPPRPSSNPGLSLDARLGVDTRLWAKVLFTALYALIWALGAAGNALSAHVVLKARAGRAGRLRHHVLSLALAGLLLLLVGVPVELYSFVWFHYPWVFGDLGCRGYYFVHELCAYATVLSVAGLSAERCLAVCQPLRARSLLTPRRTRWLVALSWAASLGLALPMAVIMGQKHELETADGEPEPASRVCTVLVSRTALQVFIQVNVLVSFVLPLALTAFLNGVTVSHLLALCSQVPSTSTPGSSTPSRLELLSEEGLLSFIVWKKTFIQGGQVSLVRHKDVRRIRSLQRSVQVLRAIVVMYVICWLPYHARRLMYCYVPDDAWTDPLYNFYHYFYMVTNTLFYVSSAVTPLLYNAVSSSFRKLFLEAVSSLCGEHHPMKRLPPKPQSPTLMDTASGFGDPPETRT

| EC50 | Structure (SMILES) |
| --- | --- |
| > 40 µM (inactive) | Cc1cccc(-n2ncc3c(N4CCN(c5ccccc5)CC4)ncnc32)c1 |
| > 40 µM (inactive) | COc1ccc(N2CCN(c3nc(C4CCC4)nc4cc(OC)c(OC)cc34)CC2)cc1 |
| > 40 µM (inactive) | Cc1ccc(C)c(-n2ncc3c(N4CCN(c5ccccc5)CC4)ncnc32)c1 |
| > 40 µM (inactive) | COc1cc2ncnc(N3CCN(c4ccccc4OC)CC3)c2cc1OC |
| > 40 µM (inactive) | COc1cc2nc(C3CCC3)nc(N3CCN(c4ccccc4C)CC3)c2cc1OC |
| > 40 µM (inactive) | Cc1ccc(-n2ncc3c(N4CCN(c5ccccc5)CC4)ncnc32)cc1 |
| > 40 µM (inactive) | COc1cc2nc(C3CCC3)nc(N3CCN(c4ccccc4Cl)CC3)c2cc1OC |
| > 40 µM (inactive) | COc1cc2nc(SCc3ccncc3)n(Cc3cccc(C(F)(F)F)c3)c(=N)c2cc1OC |
| > 40 µM (inactive) | Clc1ccc(-n2ncc3c(N4CCN(c5ccccc5)CC4)ncnc32)cc1 |
| > 40 µM (inactive) | COc1ccc(N2CCN(c3ncnc4c3cnn4-c3ccc(C)cc3C)CC2)cc1 |
| > 40 µM (inactive) | COc1cccc(OC)c1-c1nc(C(=O)NC2(C(=O)O)C3CC4CC(C3)CC2C4)cn1-c1ccnc2cc(Cl)ccc12 (centres undefined) |
| > 40 µM (inactive) | CCOc1cc2nc(-c3ccc(OC)c(OC)c3)nc(N3CCN(c4ccccc4)CC3)c2cc1OC |
| > 40 µM (inactive) | COc1cc2nc(-c3ccccc3)nc(N3CCN(c4ccc(F)cc4)CC3)c2cc1OC |
| > 40 µM (inactive) | Cc1ccc(-n2ncc3c(N4CCN(c5ccc([N+](=O)[O-])cc5)CC4)ncnc32)c(C)c1 |
| > 40 µM (inactive) | COc1cccc(N2CCN(c3nc(C4CCC4)nc4cc(OC)c(OC)cc34)CC2)c1 |
| > 40 µM (inactive) | CCCSc1nc2cc(OC)c(OC)cc2c(=N)n1Cc1ccccc1Cl |
| > 40 µM (inactive) | Fc1ccc(-n2ncc3c(N4CCN(c5ccccc5)CC4)ncnc32)cc1 |

Second part, the compound before the results:

| Structure (SMILES) | EC50 |
| --- | --- |
| COc1cccc(OC)c1-c1cc(C(=O)N[C@@H](CC(C)C)C(=O)O)nn1-c1ccnc2cc(Cl)ccc12 | > 40 µM (inactive) |
| COc1cccc(OC)c1-c1nc(C(=O)N[C@@H](CC(C)C)C(=O)O)cn1-c1cccc2ccccc12 | > 40 µM (inactive) |
| COc1cccc2c(C(=O)N[C@@H](CC(C)C)C(=O)O)cn(-c3ccnc4cc(Cl)ccc34)c12 | > 40 µM (inactive) |
| COc1cccc(OC)c1-c1nc(C(=O)N[C@@H](CC(C)C)C(=O)O)cn1-c1ccnc2cc(Cl)ccc12 | > 40 µM (inactive) |
| CN(C)S(=O)(=O)c1ccc(-c2csc(N/N=C/c3ccccc3)n2)cc1 | > 40 µM (inactive) |
| O=S(=O)(c1ccc(-c2csc(N/N=C/c3ccco3)n2)cc1)N1CCCC1 | > 40 µM (inactive) |
| CCOc1ccc(-c2nnc3c4cc(OC)c(OC)cc4n(Cc4ccc(F)cc4)cc2-3)cc1 | inactive |
| COc1cc2c3nnc(-c4ccc(C)cc4)c-3cn(Cc3ccc(F)cc3)c2cc1OC | 6.4 µM |
| COc1cccc2c(C(=O)N[C@@H](CC(C)C)C(=O)O)cn(-c3ccnc4ccccc34)c12 | > 40 µM (inactive) |
| COc1cccc(OC)c1-c1cc(C(=O)N[C@@H](CC(C)C)C(=O)OC(C)(C)C)nn1-c1ccnc2cc(Cl)ccc12 | > 40 µM (inactive) |
| COc1cc2c3nnc(-c4ccc(F)cc4)c-3cn(Cc3cccc(C)c3)c2cc1OC | 4.47 µM |
| O=S(=O)(c1ccc(-c2csc(N/N=C/c3ccco3)n2)cc1)N1CCOCC1 | > 40 µM (inactive) |
| CN(C)S(=O)(=O)c1ccc(-c2csc(N/N=C/c3ccc(C(C)(C)C)cc3)n2)cc1 | > 40 µM (inactive) |
| COc1ccccc1-c1nc(C(=O)N[C@@H](CC(C)C)C(=O)O)cn1-c1ccnc2cc(Cl)ccc12 | > 40 µM (inactive) |
| CN(C)S(=O)(=O)c1ccc(-c2csc(N/N=C/c3cccc(Cl)c3)n2)cc1 | > 40 µM (inactive) |
| COc1cc2c3nnc(-c4ccc(C)cc4)c-3cn(Cc3ccc(C)cc3)c2cc1OC | 5.38 µM |
| CC(C)C[C@H](NC(=O)c1cn(-c2ccnc3cc(Cl)ccc23)c(-c2c(Cl)cccc2Cl)n1)C(=O)O | > 40 µM (inactive) |

Reference: PubChem BioAssay AID588495 (Sanford-Burnham Center for Chemical Genomics, 2011)
